The values that follow come from patent publication US20230117470A1, “SUBSTITUTED PYRAZOLE COMPOUNDS AS TOLL RECEPTOR INHIBITORS” (BRISTOL-MYERS SQUIBB COMPANY, priority 2019, published 2023).

Holding throughout (type): cell-based
One test addresses T1, human TLR7 (Homo sapiens, UniProt Q9NYK1).
T1 construct: host or cells: HEK-Blue cells
T1 sequence (Q9NYK1 27-1049): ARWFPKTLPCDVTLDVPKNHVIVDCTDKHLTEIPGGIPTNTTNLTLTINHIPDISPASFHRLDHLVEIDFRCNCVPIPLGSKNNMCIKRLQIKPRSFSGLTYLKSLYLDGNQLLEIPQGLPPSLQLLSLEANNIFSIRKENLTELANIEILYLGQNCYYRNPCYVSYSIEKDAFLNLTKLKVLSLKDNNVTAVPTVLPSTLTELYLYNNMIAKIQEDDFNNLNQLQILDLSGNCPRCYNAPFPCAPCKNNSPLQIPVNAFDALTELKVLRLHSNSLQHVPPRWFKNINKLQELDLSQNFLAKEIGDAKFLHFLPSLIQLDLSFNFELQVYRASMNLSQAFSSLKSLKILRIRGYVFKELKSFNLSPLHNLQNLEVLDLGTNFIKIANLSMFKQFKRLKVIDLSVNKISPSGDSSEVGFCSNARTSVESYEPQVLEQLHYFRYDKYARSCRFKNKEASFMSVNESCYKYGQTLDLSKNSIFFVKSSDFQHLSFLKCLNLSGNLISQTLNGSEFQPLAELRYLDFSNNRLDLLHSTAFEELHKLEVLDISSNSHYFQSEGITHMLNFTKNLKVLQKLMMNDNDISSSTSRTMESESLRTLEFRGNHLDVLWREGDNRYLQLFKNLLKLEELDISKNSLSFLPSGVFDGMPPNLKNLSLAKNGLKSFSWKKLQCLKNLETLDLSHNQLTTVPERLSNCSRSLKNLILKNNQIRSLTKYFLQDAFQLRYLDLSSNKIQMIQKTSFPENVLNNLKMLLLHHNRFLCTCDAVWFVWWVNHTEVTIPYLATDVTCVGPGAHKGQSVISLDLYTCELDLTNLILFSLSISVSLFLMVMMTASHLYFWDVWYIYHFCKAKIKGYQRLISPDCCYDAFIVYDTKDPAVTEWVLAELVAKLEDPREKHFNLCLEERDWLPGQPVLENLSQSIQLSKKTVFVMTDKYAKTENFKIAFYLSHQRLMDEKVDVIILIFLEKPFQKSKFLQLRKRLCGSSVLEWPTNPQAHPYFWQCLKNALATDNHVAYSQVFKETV
Nature of the test: TLR7 inhibition reporter assay (HEK-Blue cells, SEAP reporter, gardiquimod stimulation). The note with it: HEK-Blue cells overexpressing human TLR7, SEAP reporter, gardiquimod 7.5 μM. The method, boiled down:
(§1)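 Percent inhibition of agonist-induced SEAP, set between agonist+DMSO wells and known-inhibitor wells, after 22 h at 37° C. Compounds (0.05 nM-50 μM final) were added 30 min at room temperature before ligand: gardiquimod 7.5 μM for TLR7, R848 15.9 μM for TLR8, ODN2006 5 nM for TLR9. Human receptors overexpressed in HEK-Blue reporter cells.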
(A reporter such as luciferase makes a cellular process visible.)

In a further test the target is T2, human TLR8 (Homo sapiens, UniProt Q9NR97).
T2 construct: host or cells: HEK-Blue cells
T2 sequence (Q9NR97 27-1041): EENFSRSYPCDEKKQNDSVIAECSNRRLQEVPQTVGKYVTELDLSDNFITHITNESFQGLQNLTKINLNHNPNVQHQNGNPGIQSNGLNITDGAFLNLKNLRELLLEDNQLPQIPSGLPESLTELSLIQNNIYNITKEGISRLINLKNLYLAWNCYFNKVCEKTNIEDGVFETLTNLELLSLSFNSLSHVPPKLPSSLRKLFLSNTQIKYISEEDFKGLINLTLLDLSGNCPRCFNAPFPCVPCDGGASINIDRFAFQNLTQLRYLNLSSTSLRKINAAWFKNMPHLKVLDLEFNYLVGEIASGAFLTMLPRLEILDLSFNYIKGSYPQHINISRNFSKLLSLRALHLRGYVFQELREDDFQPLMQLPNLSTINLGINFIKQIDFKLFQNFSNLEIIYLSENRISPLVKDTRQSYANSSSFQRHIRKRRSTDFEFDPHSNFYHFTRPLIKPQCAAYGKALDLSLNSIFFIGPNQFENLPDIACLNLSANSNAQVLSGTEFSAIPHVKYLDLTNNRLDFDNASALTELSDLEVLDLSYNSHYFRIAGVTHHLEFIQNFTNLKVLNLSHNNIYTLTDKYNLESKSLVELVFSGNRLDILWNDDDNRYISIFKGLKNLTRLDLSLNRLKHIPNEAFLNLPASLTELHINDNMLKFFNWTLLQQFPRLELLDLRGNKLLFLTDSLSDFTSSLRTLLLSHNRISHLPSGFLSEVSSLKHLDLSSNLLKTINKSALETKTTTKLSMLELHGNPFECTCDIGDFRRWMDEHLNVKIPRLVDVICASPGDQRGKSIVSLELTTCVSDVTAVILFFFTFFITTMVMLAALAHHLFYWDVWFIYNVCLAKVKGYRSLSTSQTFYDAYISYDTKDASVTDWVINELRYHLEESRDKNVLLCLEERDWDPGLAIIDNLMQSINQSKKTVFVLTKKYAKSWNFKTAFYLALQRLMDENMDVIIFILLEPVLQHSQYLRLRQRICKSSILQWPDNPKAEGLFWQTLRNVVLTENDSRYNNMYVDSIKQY
Nature of the test: TLR8 inhibition reporter assay (HEK-Blue cells, SEAP reporter, R848 stimulation). The note with it: HEK-Blue cells overexpressing human TLR8, SEAP reporter, R848 15.9 μM. In a few lines: as §1

Another test deals with T3, human TLR9 (Homo sapiens, UniProt Q9NR96).
T3 construct: host or cells: HEK-Blue cells
T3 sequence (Q9NR96 26-1032): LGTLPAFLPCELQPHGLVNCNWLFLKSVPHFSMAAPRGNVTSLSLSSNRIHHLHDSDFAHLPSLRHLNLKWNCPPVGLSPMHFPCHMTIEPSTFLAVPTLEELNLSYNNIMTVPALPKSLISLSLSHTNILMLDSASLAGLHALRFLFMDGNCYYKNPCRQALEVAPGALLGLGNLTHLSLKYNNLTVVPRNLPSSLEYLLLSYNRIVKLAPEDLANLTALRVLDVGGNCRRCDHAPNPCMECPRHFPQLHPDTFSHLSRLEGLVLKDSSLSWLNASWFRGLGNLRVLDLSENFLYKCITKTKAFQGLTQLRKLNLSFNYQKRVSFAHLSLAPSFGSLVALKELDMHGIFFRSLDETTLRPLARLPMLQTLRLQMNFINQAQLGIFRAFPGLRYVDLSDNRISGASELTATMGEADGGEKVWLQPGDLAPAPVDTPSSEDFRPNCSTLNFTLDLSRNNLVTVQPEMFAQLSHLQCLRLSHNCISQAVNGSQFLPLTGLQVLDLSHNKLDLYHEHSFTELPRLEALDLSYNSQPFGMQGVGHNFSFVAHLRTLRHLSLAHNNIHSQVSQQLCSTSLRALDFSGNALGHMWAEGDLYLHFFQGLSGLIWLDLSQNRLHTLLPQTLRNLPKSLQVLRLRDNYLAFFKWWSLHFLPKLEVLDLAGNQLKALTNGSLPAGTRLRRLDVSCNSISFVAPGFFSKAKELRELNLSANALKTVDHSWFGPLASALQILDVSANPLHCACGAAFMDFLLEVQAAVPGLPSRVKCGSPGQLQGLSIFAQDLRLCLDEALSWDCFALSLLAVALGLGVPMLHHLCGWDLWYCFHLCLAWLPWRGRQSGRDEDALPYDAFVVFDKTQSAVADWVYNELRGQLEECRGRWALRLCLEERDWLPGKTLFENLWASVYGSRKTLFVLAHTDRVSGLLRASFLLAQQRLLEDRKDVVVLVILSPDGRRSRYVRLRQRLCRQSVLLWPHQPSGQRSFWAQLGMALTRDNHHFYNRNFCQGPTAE
The test can be described thus: TLR9 inhibition reporter assay (HEK-Blue cells, SEAP reporter, ODN2006 stimulation). The settings on record: HEK-Blue cells overexpressing human TLR9, SEAP reporter, ODN2006 5 nM. The method, boiled down: as §1

By IC50 is commonly meant the concentration at which inhibition is half-maximal. As to `CCN1CCC(c2ccc(-c3n[nH]c(-c4cc(C)c5ncnn5c4)c3C(C)C)cc2)CC1` [Example 310], the values for the IC50 against human TLR7, on human TLR8 and against human TLR9 were 1.45 nM, 0.43 nM and 19300 nM, respectively.

With `Cc1cc(-c2[nH]nc(C(=O)NC3CN(C(C)C)C3)c2C(C)C)cn2ncnc12` [Example 155], the figures for the IC50 against human TLR7, against human TLR8 and on human TLR9 were 41.5 nM, 21.5 nM and > 50000 nM, respectively.

For `Cc1cc(-c2[nH]nc(C(=O)N[C@H]3CC[C@H](N(C)C)CC3)c2C(C)C)cn2ncnc12` [Example 82], the 50% inhibitory concentration (IC50) at human TLR7 is 4.69 nM; at human TLR8, 43.6 nM; at human TLR9, > 50000 nM.

On to `Cc1cc(-c2[nH]nc(C(=O)N3CC4CNCC4C3)c2C(C)C)cn2ncnc12` (stereo not drawn) [Example 59], for which the IC50 on human TLR7 is 5.83 nM; against human TLR8, 47.2 nM; against human TLR9 it was > 50000 nM.

Turning to `Cc1cc(-c2[nH]nc(C(=O)N[C@H]3CC[C@H](N(CCC(C)(C)C)CCC(C)(C)C)CC3)c2C(C)C)cn2ncnc12` [Example 107], the values for the IC50 on human TLR7, at human TLR8 and at human TLR9 were 3.6 nM, 190 nM and 15400 nM, respectively.

In the case of `Cc1cc(-c2[nH]nc(C3CCC(N(C)CC(=O)N(C)C)CC3)c2C(C)C)cn2ncnc12` (single isomer, unassigned) [compound 299], the figures for the concentration for half-maximal inhibition (IC50) against human TLR7, against human TLR8 and against human TLR9 were 1.42 nM, 0.72 nM and 12700 nM, respectively.

Take `COCCN1CCc2nc(-c3n[nH]c(-c4cc(C)c5ncnn5c4)c3C(C)C)sc2C1` [Example 266]: the IC50 is 119 nM against human TLR7, 60.2 nM on human TLR8 and > 50000 nM at human TLR9.

For `COc1cc(-c2[nH]nc(-c3cnc(C4CCN(C5COC5)CC4)cn3)c2C(C)C)cn2ncnc12` [Example 385], the IC50 against human TLR7 is 58.8 nM; against human TLR8 it was 31.4 nM; against human TLR9, > 50000 nM.

`COc1cc(-c2[nH]nc(-c3ccc(C4CCN(CC5CCOCC5)CC4)cn3)c2C(C)C)cn2ncnc12` [Example 375]: the results for the IC50 against human TLR7, at human TLR8 and at human TLR9 were 19.9 nM, 8.4 nM and 35600 nM, respectively.

Consider `COc1cc(-c2[nH]nc(-c3ccc(C4CN(C)C4)cc3)c2C(C)C)cn2ncnc12` [Example 328], for which the IC50 at human TLR7 came to 12.9 nM; against human TLR8, 12.8 nM; on human TLR9, 18800 nM.

`COc1cc(-c2[nH]nc(-c3ccc(C4CCN(C5CCOCC5)CC4)cc3)c2C(C)C)cn2ncnc12` [Example 313]: the half-maximal inhibitory concentration (IC50) against human TLR7 was 3.71 nM; on human TLR8, 1.72 nM; on human TLR9, > 50000 nM.

Turning to `Cc1cc(-c2[nH]nc(C(=O)N[C@H]3CC[C@@H](NCc4cncnc4)CC3)c2C(C)C)cn2ncnc12` [Example 102], the values for the IC50 at human TLR7, on human TLR8 and against human TLR9 were 0.37 nM, 14 nM and 3890 nM, respectively.

For the molecule `Cc1cc(-c2[nH]nc(-c3ncc4c(n3)CCN(C(C)C)C4)c2C(C)C)cn2ncnc12` [Example 250], the IC50 against human TLR7 amounted to 46.8 nM; against human TLR8, 43.6 nM; at human TLR9, 43300 nM.

Regarding `COc1cc(-c2[nH]nc(-c3ccc4c(c3)CCNC4)c2C(C)C)cn2ncnc12` [Example 234], the IC50 against human TLR7 was 15.1 nM; on human TLR8, 59.8 nM; on human TLR9, > 50000 nM.

For `Cc1cc(-c2[nH]nc(C(=O)NC3CCN(C4CCOCC4)CC3)c2C(C)C)cn2ncnc12` [Example 153], the values for the IC50 against human TLR7, against human TLR8 and at human TLR9 were 27.8 nM, 6.62 nM and 22300 nM, respectively.

`Cc1cc(-c2[nH]nc(C(=O)N(C)C)c2C(C)C)cn2ncnc12` [Example 31]: the IC50 on human TLR7 was 3.98 nM; at human TLR8, 3.02 nM; against human TLR9 it was > 50000 nM.

Regarding `Cc1cc(-c2[nH]nc(C(=O)N3CCN(c4ccncc4)CC3)c2C(C)C)cn2ncnc12` [Example 14], the IC50 against human TLR7 is 1.92 nM; against human TLR8 it was 0.94 nM; against human TLR9, 3840 nM.

Consider `COCC(C)N[C@H]1CC[C@H](NC(=O)c2n[nH]c(-c3cc(C)c4ncnn4c3)c2C(C)C)CC1` (stereo partly drawn) [Example 146], for which the results for the IC50 against human TLR7, against human TLR8 and against human TLR9 were 19.7 nM, 0.92 nM and 16300 nM, respectively.

For the molecule `CCN1CCc2nc(-c3n[nH]c(-c4cc(OC)c5ncnn5c4)c3C(C)C)sc2C1` [Example 261], the results for the IC50 against human TLR7, against human TLR8 and against human TLR9 were 8.43 nM, 2.26 nM and 17100 nM, respectively.

As to `Cc1noc(C)c1CN1CCC(NC(=O)c2n[nH]c(-c3cc(C)c4ncnn4c3)c2C(C)C)CC1` [Example 78], the results for the IC50 on human TLR7, against human TLR8 and against human TLR9 were 0.59 nM, 1.64 nM and 2870 nM, respectively.

Regarding `Cc1cc(-c2[nH]nc(C(=O)N(C)Cc3cccnc3)c2C(C)C)cn2ncnc12` [Example 17], the IC50 at human TLR7 amounted to 8.08 nM; against human TLR8 it was 8.27 nM; against human TLR9 it was 3430 nM.

Consider `CCC(CC)N1CCC(c2cnc(-c3n[nH]c(-c4cc(OC)c5ncnn5c4)c3C(C)C)cn2)CC1` [Example 386], for which the IC50 against human TLR7 is 10.3 nM; on human TLR8, 3.56 nM; against human TLR9, 9560 nM.
